Results from paper PMC6979384, “Characterization of the plant homeodomain (PHD) reader family for their histone tail interactions” (Epigenetics & Chromatin, 2020).
One block for each substance: values may come before it.

Experiments:
Test in all cases: Histone peptide microarray
Type in all cases: binding, human
[1] = test system: AIRE (PP); details: arrays performed twice; for Array Heatmap signal, AIRE (PP): sheet "Array Heatmap", GST-tagged AIRE (PP), total replicate number n = 4
Method in brief: (§1)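 Using an optimized microarray protocol, purified GST-tagged PHD fingers were incubated at 0.5 μM on 293 histone peptides with single or multiple modifications, and array signal was recorded as the average of 4 replicates.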

[2] = test system: BAZ2B; details: arrays performed twice; for Array Heatmap signal, BAZ2B: sheet "Array Heatmap", GST-tagged BAZ2B, total replicate number n = 4
Method in brief: as §1

[3] = test system: BPTF (PB); details: arrays performed twice; for Array Heatmap signal, BPTF (PB): sheet "Array Heatmap", GST-tagged BPTF (PB), total replicate number n = 4
Method in brief: as §1

[4] = test system: CHD4 (PPCC); details: arrays performed twice; for Array Heatmap signal, CHD4 (PPCC): sheet "Array Heatmap", GST-tagged CHD4 (PPCC), total replicate number n = 4
Method in brief: as §1

[5] = test system: CHD5 (PCC); details: arrays performed twice; for Array Heatmap signal, CHD5 (PCC): sheet "Array Heatmap", GST-tagged CHD5 (PCC), total replicate number n = 4
Method in brief: as §1

[6] = test system: CHD5 (PPCC); details: arrays performed twice; for Array Heatmap signal, CHD5 (PPCC): sheet "Array Heatmap", GST-tagged CHD5 (PPCC), total replicate number n = 4
Method in brief: as §1

[7] = test system: DIDO1; details: arrays performed twice; for Array Heatmap signal, DIDO1: sheet "Array Heatmap", GST-tagged DIDO1, total replicate number n = 4
Method in brief: as §1

[8] = test system: DPF2 (PPC2W2); details: arrays performed twice; for Array Heatmap signal, DPF2 (PPC2W2): sheet "Array Heatmap", GST-tagged DPF2 (PPC2W2), total replicate number n = 4
Method in brief: as §1

[9] = test system: ING1; details: arrays performed twice; for Array Heatmap signal, ING1: sheet "Array Heatmap", GST-tagged ING1, total replicate number n = 4
Method in brief: as §1

[10] = test system: ING2; details: arrays performed twice; for Array Heatmap signal, ING2: sheet "Array Heatmap", GST-tagged ING2, total replicate number n = 4
Method in brief: as §1

[11] = test system: ING3; details: arrays performed twice; for Array Heatmap signal, ING3: sheet "Array Heatmap", GST-tagged ING3, total replicate number n = 4
Method in brief: as §1

[12] = test system: ING4; details: arrays performed twice; for Array Heatmap signal, ING4: sheet "Array Heatmap", GST-tagged ING4, total replicate number n = 4
Method in brief: as §1

[13] = test system: ING5; details: arrays performed twice; for Array Heatmap signal, ING5: sheet "Array Heatmap", GST-tagged ING5, total replicate number n = 4
Method in brief: as §1

[14] = test system: KDM4C (TTP); details: arrays performed twice; for Array Heatmap signal, KDM4C (TTP): sheet "Array Heatmap", GST-tagged KDM4C (TTP), total replicate number n = 4
Method in brief: as §1

[15] = test system: KDM5A (1); details: arrays performed twice; for Array Heatmap signal, KDM5A (1): sheet "Array Heatmap", GST-tagged KDM5A (1), total replicate number n = 4
Method in brief: as §1

[16] = test system: KDM5A (3); details: arrays performed twice; for Array Heatmap signal, KDM5A (3): sheet "Array Heatmap", GST-tagged KDM5A (3), total replicate number n = 4
Method in brief: as §1

[17] = test system: KDM5B (1); details: arrays performed twice; for Array Heatmap signal, KDM5B (1): sheet "Array Heatmap", GST-tagged KDM5B (1), total replicate number n = 4
Method in brief: as §1

[18] = test system: KDM5B (3); details: arrays performed twice; for Array Heatmap signal, KDM5B (3): sheet "Array Heatmap", GST-tagged KDM5B (3), total replicate number n = 4
Method in brief: as §1

[19] = test system: KDM7A; details: arrays performed twice; for Array Heatmap signal, KDM7A: sheet "Array Heatmap", GST-tagged KDM7A, total replicate number n = 4
Method in brief: as §1

[20] = test system: MLL5; details: arrays performed twice; for Array Heatmap signal, MLL5: sheet "Array Heatmap", GST-tagged MLL5, total replicate number n = 4
Method in brief: as §1

[21] = test system: MORC3 (CW); details: arrays performed twice; for Array Heatmap signal, MORC3 (CW): sheet "Array Heatmap", GST-tagged MORC3 (CW), total replicate number n = 4
Method in brief: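 A peptide microarray holding 293 synthetic histone peptides with individual or combinatorial modifications was probed with each GST-PHD protein at 0.5 μM. Values represent mean intensity (±SD) from four replicates.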

[22] = test system: PHF13; details: arrays performed twice; for Array Heatmap signal, PHF13: sheet "Array Heatmap", GST-tagged PHF13, total replicate number n = 4
Method in brief: as §1

[23] = test system: PHF21A; details: arrays performed twice; for Array Heatmap signal, PHF21A: sheet "Array Heatmap", GST-tagged PHF21A, total replicate number n = 4
Method in brief: as §1

[24] = test system: PHF23; details: arrays performed twice; for Array Heatmap signal, PHF23: sheet "Array Heatmap", GST-tagged PHF23, total replicate number n = 4
Method in brief: as §1

[25] = test system: PHF2; details: arrays performed twice; for Array Heatmap signal, PHF2: sheet "Array Heatmap", GST-tagged PHF2, total replicate number n = 4
Method in brief: as §1

[26] = test system: PHF8; details: arrays performed twice; for Array Heatmap signal, PHF8: sheet "Array Heatmap", GST-tagged PHF8, total replicate number n = 4
Method in brief: as §1

[27] = test system: PHRF1 (RP); details: arrays performed twice; for Array Heatmap signal, PHRF1 (RP): sheet "Array Heatmap", GST-tagged PHRF1 (RP), total replicate number n = 4
Method in brief: as §1

[28] = test system: RAG2; details: arrays performed twice; for Array Heatmap signal, RAG2: sheet "Array Heatmap", GST-tagged RAG2, total replicate number n = 4
Method in brief: as §1

[29] = test system: SP140L; details: arrays performed twice; for Array Heatmap signal, SP140L: sheet "Array Heatmap", GST-tagged SP140L, total replicate number n = 4
Method in brief: as §1

[30] = test system: TAF3; details: arrays performed twice; for Array Heatmap signal, TAF3: sheet "Array Heatmap", GST-tagged TAF3, total replicate number n = 4
Method in brief: as §1

[31] = test system: TRIM66 (PB); details: arrays performed twice; for Array Heatmap signal, TRIM66 (PB): sheet "Array Heatmap", GST-tagged TRIM66 (PB), total replicate number n = 4
Method in brief: as §1

Substance: H3 15-34: H3 15-34
Array Heatmap signal, AIRE (PP) [1]: 0.5155
Array Heatmap signal, BAZ2B [2]: 0.514
Array Heatmap signal, BPTF (PB) [3]: 0.3761
Array Heatmap signal, CHD4 (PPCC) [4]: 0.5968
Array Heatmap signal, CHD5 (PCC) [5]: 0.8306
Array Heatmap signal, CHD5 (PPCC) [6]: 0.6174
Array Heatmap signal, DIDO1 [7]: 0.6822
Array Heatmap signal, DPF2 (PPC2W2) [8]: 0.6945
Array Heatmap signal, ING1 [9]: 0.5616
Array Heatmap signal, ING2 [10]: 0.6111
Array Heatmap signal, ING3 [11]: 0.5057
Array Heatmap signal, ING4 [12]: 0.5265
Array Heatmap signal, ING5 [13]: 0.4109
Array Heatmap signal, KDM4C (TTP) [14]: 0.5661
Array Heatmap signal, KDM5A (1) [15]: 0.5387
Array Heatmap signal, KDM5A (3) [16]: 0.4281
Array Heatmap signal, KDM5B (1) [17]: 0.7112
Array Heatmap signal, KDM5B (3) [18]: 0.4984
Array Heatmap signal, KDM7A [19]: 0.4439
Array Heatmap signal, MLL5 [20]: 0.5742
Array Heatmap signal, MORC3 (CW) [21]: 0.3679
Array Heatmap signal, PHF13 [22]: 0.6527
Array Heatmap signal, PHF21A [23]: 0.5191
Array Heatmap signal, PHF23 [24]: 0.5205
Array Heatmap signal, PHF2 [25]: 0.4604
Array Heatmap signal, PHF8 [26]: 0.3827
Array Heatmap signal, PHRF1 (RP) [27]: 0.4582
Array Heatmap signal, RAG2 [28]: 0.2601
Array Heatmap signal, SP140L [29]: 0.3812
Array Heatmap signal, TAF3 [30]: 0.3059
Array Heatmap signal, TRIM66 (PB) [31]: 0.5952

Substance: H3.3 75-94: H3.3 120-135
Array Heatmap signal, AIRE (PP) [1]: 0.502
Array Heatmap signal, BAZ2B [2]: 0.4527
Array Heatmap signal, BPTF (PB) [3]: 0.3448
Array Heatmap signal, CHD4 (PPCC) [4]: 0.5423
Array Heatmap signal, CHD5 (PCC) [5]: 0.7355
Array Heatmap signal, CHD5 (PPCC) [6]: 0.563
Array Heatmap signal, DIDO1 [7]: 0.6416
Array Heatmap signal, DPF2 (PPC2W2) [8]: 0.6426
Array Heatmap signal, ING1 [9]: 0.5031
Array Heatmap signal, ING2 [10]: 0.5986
Array Heatmap signal, ING3 [11]: 0.473
Array Heatmap signal, ING4 [12]: 0.4549
Array Heatmap signal, ING5 [13]: 0.3621
Array Heatmap signal, KDM4C (TTP) [14]: 0.5145
Array Heatmap signal, KDM5A (1) [15]: 0.468
Array Heatmap signal, KDM5A (3) [16]: 0.454
Array Heatmap signal, KDM5B (1) [17]: 0.6676
Array Heatmap signal, KDM5B (3) [18]: 0.4774
Array Heatmap signal, KDM7A [19]: 0.3506
Array Heatmap signal, MLL5 [20]: 0.5079
Array Heatmap signal, MORC3 (CW) [21]: 0.3704
Array Heatmap signal, PHF13 [22]: 0.6071
Array Heatmap signal, PHF21A [23]: 0.449
Array Heatmap signal, PHF23 [24]: 0.5259
Array Heatmap signal, PHF2 [25]: 0.46
Array Heatmap signal, PHF8 [26]: 0.3469
Array Heatmap signal, PHRF1 (RP) [27]: 0.4716
Array Heatmap signal, RAG2 [28]: 0.2477
Array Heatmap signal, SP140L [29]: 0.3784
Array Heatmap signal, TAF3 [30]: 0.2603
Array Heatmap signal, TRIM66 (PB) [31]: 0.5407

Array Heatmap value (peptide array binding signal) ([1]; AIRE (PP), GST-tagged, n of 4): 0.4018
Array Heatmap value (peptide array binding signal) ([2]; BAZ2B, GST-tagged, n of 4): 0.3991
Array Heatmap value (peptide array binding signal) ([3]; BPTF (PB), GST-tagged, n of 4): 0.2963
Array Heatmap value (peptide array binding signal) ([4]; CHD4 (PPCC), GST-tagged, n of 4): 0.5189
Array Heatmap value (peptide array binding signal) ([5]; CHD5 (PCC), GST-tagged, n of 4): 0.7543
Array Heatmap value (peptide array binding signal) ([6]; CHD5 (PPCC), GST-tagged, n of 4): 0.4573
Array Heatmap value (peptide array binding signal) ([7]; DIDO1, GST-tagged, n of 4): 0.5928
Array Heatmap value (peptide array binding signal) ([8]; DPF2 (PPC2W2), GST-tagged, n of 4): 0.6545
Array Heatmap value (peptide array binding signal) ([9]; ING1, GST-tagged, n of 4): 0.4711
Array Heatmap value (peptide array binding signal) ([10]; ING2, GST-tagged, n of 4): 0.5919
Array Heatmap value (peptide array binding signal) ([11]; ING3, GST-tagged, n of 4): 0.3932
Array Heatmap value (peptide array binding signal) ([12]; ING4, GST-tagged, n of 4): 0.3881
Array Heatmap value (peptide array binding signal) ([13]; ING5, GST-tagged, n of 4): 0.2899
Array Heatmap value (peptide array binding signal) ([14]; KDM4C (TTP), GST-tagged, n of 4): 0.4116
Array Heatmap value (peptide array binding signal) ([15]; KDM5A (1), GST-tagged, n of 4): 0.4194
Array Heatmap value (peptide array binding signal) ([16]; KDM5A (3), GST-tagged, n of 4): 0.3966
Array Heatmap value (peptide array binding signal) ([17]; KDM5B (1), GST-tagged, n of 4): 0.6336
Array Heatmap value (peptide array binding signal) ([18]; KDM5B (3), GST-tagged, n of 4): 0.384
Array Heatmap value (peptide array binding signal) ([19]; KDM7A, GST-tagged, n of 4): 0.3046
Array Heatmap value (peptide array binding signal) ([20]; MLL5, GST-tagged, n of 4): 0.4865
Array Heatmap value (peptide array binding signal) ([21]; MORC3 (CW), GST-tagged, n of 4): 0.309
Array Heatmap value (peptide array binding signal) ([22]; PHF13, GST-tagged, n of 4): 0.5207
Array Heatmap value (peptide array binding signal) ([23]; PHF21A, GST-tagged, n of 4): 0.4184
Array Heatmap value (peptide array binding signal) ([24]; PHF23, GST-tagged, n of 4): 0.4708
Array Heatmap value (peptide array binding signal) ([25]; PHF2, GST-tagged, n of 4): 0.4095
Array Heatmap value (peptide array binding signal) ([26]; PHF8, GST-tagged, n of 4): 0.3037
Array Heatmap value (peptide array binding signal) ([27]; PHRF1 (RP), GST-tagged, n of 4): 0.3919
Array Heatmap value (peptide array binding signal) ([28]; RAG2, GST-tagged, n of 4): 0.2114
Array Heatmap value (peptide array binding signal) ([29]; SP140L, GST-tagged, n of 4): 0.3238
Array Heatmap value (peptide array binding signal) ([30]; TAF3, GST-tagged, n of 4): 0.2302
Array Heatmap value (peptide array binding signal) ([31]; TRIM66 (PB), GST-tagged, n of 4): 0.515
Substance: H4K12me1: H4 1-23 [Peptide H4K12me1]
